The target in one experiment is T1, TNKS2 (Homo sapiens, UniProt Q9H2K2).
T1 construct: purchased BPS Bioscience, San Diego, USA 80572 (TNKS2 Histone Ribosylation Assay Kit)
T1 sequence (Q9H2K2 1-1166): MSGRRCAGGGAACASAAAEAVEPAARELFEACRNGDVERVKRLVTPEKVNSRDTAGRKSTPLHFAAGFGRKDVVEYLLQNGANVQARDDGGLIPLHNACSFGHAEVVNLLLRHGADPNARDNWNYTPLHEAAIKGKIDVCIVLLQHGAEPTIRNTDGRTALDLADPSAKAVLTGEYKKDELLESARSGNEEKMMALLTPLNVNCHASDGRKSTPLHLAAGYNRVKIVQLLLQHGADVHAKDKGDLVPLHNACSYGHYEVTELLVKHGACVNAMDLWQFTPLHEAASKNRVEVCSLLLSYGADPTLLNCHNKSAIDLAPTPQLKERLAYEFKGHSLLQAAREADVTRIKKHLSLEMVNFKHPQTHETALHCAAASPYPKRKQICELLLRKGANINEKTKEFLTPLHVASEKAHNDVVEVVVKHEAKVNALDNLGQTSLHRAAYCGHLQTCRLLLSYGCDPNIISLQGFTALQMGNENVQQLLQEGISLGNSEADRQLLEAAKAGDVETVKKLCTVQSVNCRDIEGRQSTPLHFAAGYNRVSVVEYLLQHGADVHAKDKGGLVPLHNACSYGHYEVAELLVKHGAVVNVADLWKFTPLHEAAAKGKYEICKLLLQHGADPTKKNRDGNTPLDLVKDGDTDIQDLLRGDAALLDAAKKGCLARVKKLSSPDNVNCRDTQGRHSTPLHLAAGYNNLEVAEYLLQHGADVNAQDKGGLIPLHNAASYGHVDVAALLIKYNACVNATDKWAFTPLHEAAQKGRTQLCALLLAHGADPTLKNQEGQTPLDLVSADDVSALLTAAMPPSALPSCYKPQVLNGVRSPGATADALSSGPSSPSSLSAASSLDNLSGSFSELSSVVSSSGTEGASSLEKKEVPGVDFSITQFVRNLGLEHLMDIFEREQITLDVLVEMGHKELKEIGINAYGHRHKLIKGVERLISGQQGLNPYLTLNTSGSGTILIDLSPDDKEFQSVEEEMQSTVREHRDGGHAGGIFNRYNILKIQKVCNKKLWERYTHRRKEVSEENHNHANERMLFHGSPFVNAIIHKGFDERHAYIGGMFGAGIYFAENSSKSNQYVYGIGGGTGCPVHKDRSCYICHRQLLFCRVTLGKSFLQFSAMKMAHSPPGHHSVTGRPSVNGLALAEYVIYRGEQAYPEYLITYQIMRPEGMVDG
The experiment is described as follows: TNKS2 Assay B (auto-parsylation, [3H]-NAD+ SPA). It counts as biochemical. Conditions: 6 nM TNKS2, auto-parsylation, over night at room temperature.

Experiment [1] concerns wildtype Wnt signaling cascade. The experiment can be described thus: HEK293 TOP assay (Super TopFlash luciferase reporter, Wnt-3a stimulated). It counts as cell-based. Conditions: Homo sapiens, HEK293, 16 h, HEK293 TOP reporter cells, Wnt3a at EC50, 16 hours. An outline of the steps:
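Compound series (50 μM down to 15 nM, 3.16-fold) diluted from DMSO 50-fold into CAFTY buffer, pH 7.4, 2 mM Ca^2+, 0.01% BSA, applied to Wnt-3a-stimulated HEK293 TopFlash and FOP reporter lines in parallel. Cells seeded 10000/well 24 h before; luciferase signal measured.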
A general note: In a reporter assay the amount or activity of a reporter protein is the signal.

The test system of experiment [2] is HEK293 cells cotransfected with the FOP control vector. The experiment can be described thus: HEK293 FOP assay (control reporter with non-functional TCF elements). It counts as cell-based. The note with it: Homo sapiens, 16 hours. Put shortly:
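Compound series from 50 μM down to 15 nM, prediluted in DMSO then 50-fold into CAFTY buffer (pH 7.4, 2 mM Ca2+, 0.01% BSA), tested alongside TOP cells on a Geneticin-selected HEK293 FOP line whose TCF elements are replaced by a random sequence; recombinant human Wnt-3a applied at 2500-5 ng/ml.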

pIC50: −log10 of the molar value. A value given as a limit tells only on which side of the number the result lay.

As a reminder, the pIC50 is the negative decadic logarithm of the IC50, by convention in mol/L. The low end stands for a high IC50, the high end for a low IC50.

Take `Cc1ccnc2c(C(=O)N[C@H]3CC[C@@]4(CCN(c5ccccc5Cl)C4=O)CC3)cnn12` [Example 273, N-[(trans)-2-(2-chlorophenyl)-1-oxo-2-azaspiro[4.5]dec-8-yl]-7-methylpyrazolo[1,5-a]pyrimidine-3-carboxamide]: the pIC50 was 7.96 at TNKS2, 8.72 in experiment [1] and no more than 4.30 in experiment [2].
`O=C(N[C@H]1CC[C@@]2(CCN(c3ccccc3Cl)C2=O)CC1)c1c[nH]c2cccnc12` [Example 274, N-[(trans)-2-(2-chlorophenyl)-1-oxo-2-azaspiro[4.5]dec-8-yl]-1H-pyrrolo[3,2-b]pyridine-3-carboxamide]: the pIC50 against TNKS2 was 7.15; in experiment [1], 8.55; in experiment [2] it was 4.42.
In the same order, the values of `O=C(N[C@H]1CC[C@@]2(CCN(c3cccc(Cl)c3)C2=O)CC1)c1c[nH]c2cccnc12` [Example 275, N-[(trans)-2-(3-chlorophenyl)-1-oxo-2-azaspiro[4.5]dec-8-yl]-1H-pyrrolo[3,2-b]pyridine-3-carboxamide] are 6.52, 6.22 and 4.96.
As to `CN1CCN(C(=O)c2nc[nH]c2C(=O)N[C@H]2CC[C@@]3(CCN(c4cccc(Cl)c4)C3=O)CC2)CC1` [Example 283, N-[(trans)-2-(3-chlorophenyl)-1-oxo-2-azaspiro[4.5]dec-8-yl]-4-[(4-methylpiperazin-1-yl)carbonyl]-1H-imidazole-5-carboxamide], the values for the pIC50 (against TNKS2; in experiment [1]; in experiment [2]) were 5.37, 6.36 and 4.70, respectively.
The matching figures for `O=C(NCCN1CCOCC1)c1nc[nH]c1C(=O)N[C@H]1CC[C@@]2(CCN(c3cccc(Cl)c3)C2=O)CC1` [Example 287, N^5-[(trans)-2-(3-chlorophenyl)-1-oxo-2-azaspiro[4.5]dec-8-yl]-N^4-[2-(morpholin-4-yl)ethyl]-1H-imidazole-4,5-dicarboxamide]: 7.68, 7.16 and no more than 4.30.
The matching figures for `Cc1cc(N2CC[C@]3(CC[C@@H](NC(=O)c4[nH]cnc4C(N)=O)CC3)C2=O)c(Cl)cc1F` [Example 291, N^5-[(trans)-2-(2-chloro-4-fluoro-5-methylphenyl)-1-oxo-2-azaspiro[4.5]dec-8-yl]-1H-imidazole-4,5-dicarboxamide]: 8.07, 8.31 and no more than 4.30.
Regarding `Cc1cc(N2CC[C@]3(CC[C@@H](NC(=O)c4[nH]cnc4C(=O)N4CC(F)C4)CC3)C2=O)c(Cl)cc1F` [Example 292, N-[(trans)-2-(2-chloro-4-fluoro-5-methylphenyl)-1-oxo-2-azaspiro[4.5]dec-8-yl]-4-[(3-fluoroazetidin-1-yl)carbonyl]-1H-imidazole-5-carboxamide], the pIC50 against TNKS2 is 8.06; in experiment [1], 8.80; in experiment [2], 5.00.
In the case of `Cc1cc(N2CC[C@]3(CC[C@@H](NC(=O)c4[nH]cnc4C(=O)N4CC5(COC5)C4)CC3)C2=O)c(Cl)cc1F` [Example 293, N-[(trans)-2-(2-chloro-4-fluoro-5-methylphenyl)-1-oxo-2-azaspiro[4.5]dec-8-yl]-4-(2-oxa-6-azaspiro[3.3]hept-6-ylcarbonyl)-1H-imidazole-5-carboxamide], the negative logarithm of the IC50 (pIC50) against TNKS2 is 8.10; in experiment [1], 8.80; in experiment [2], no more than 4.30.
In the same order, the values of `Cc1cc(N2CC[C@]3(CC[C@@H](NC(=O)c4[nH]cnc4C(=O)N4CCN(C)CC4)CC3)C2=O)c(Cl)cc1F` [Example 294, N-[(trans)-2-(2-chloro-4-fluoro-5-methylphenyl)-1-oxo-2-azaspiro[4.5]dec-8-yl]-4-[(4-methylpiperazin-1-yl)carbonyl]-1H-imidazole-5-carboxamide] are 6.82, 7.34 and no more than 4.30.
Turning to `Cc1cc(N2CC[C@]3(CC[C@@H](NC(=O)c4[nH]cnc4C(=O)NC4CC4)CC3)C2=O)c(Cl)cc1F` [Example 295, N^5-[(trans)-2-(2-chloro-4-fluoro-5-methylphenyl)-1-oxo-2-azaspiro[4.5]dec-8-yl]-N^4-cyclopropyl-1H-imidazole-4,5-dicarboxamide], the pIC50 on TNKS2 is 8.04; in experiment [1] it was 9.00; in experiment [2] it was 4.92.
In the same order, the values of `Cc1cc(N2CC[C@]3(CC[C@@H](NC(=O)c4[nH]cnc4C(=O)N4CC(OC(F)F)C4)CC3)C2=O)c(Cl)cc1F` [Example 296, N-[(trans)-2-(2-chloro-4-fluoro-5-methylphenyl)-1-oxo-2-azaspiro[4.5]dec-8-yl]-4-{[3-(difluoromethoxy)azetidin-1-yl]carbonyl}-1H-imidazole-5-carboxamide] are 8.08, 8.89 and 4.46.
In the same order, the values of `Cc1cc(N2CCC[C@]3(CC[C@@H](NC(=O)c4[nH]cnc4C(=O)N4CC(F)C4)CC3)C2=O)c(Cl)cc1F` [Example 303, N-[(trans)-2-(2-chloro-4-fluoro-5-methylphenyl)-1-oxo-2-azaspiro[5.5]undec-9-yl]-4-[(3-fluoroazetidin-1-yl)carbonyl]-1H-imidazole-5-carboxamide] are 7.49, 7.85 and no more than 6.30.
In the same order, the values of `CNC(=O)c1nc[nH]c1C(=O)N[C@H]1CC[C@@]2(CCCN(c3cc(C)c(F)cc3Cl)C2=O)CC1` [Example 304, N^5-[(trans)-2-(2-chloro-4-fluoro-5-methylphenyl)-1-oxo-2-azaspiro[5.5]undec-9-yl]-N^4-methyl-1H-imidazole-4,5-dicarboxamide] are 7.33, 7.96 and no more than 6.30.
For the molecule `CCNC(=O)c1nc[nH]c1C(=O)N[C@H]1CC[C@@]2(CCCN(c3cc(C)c(F)cc3Cl)C2=O)CC1` [Example 305, N^5-[(trans)-2-(2-chloro-4-fluoro-5-methylphenyl)-1-oxo-2-azaspiro[5.5]undec-9-yl]-N^4-ethyl-1H-imidazole-4,5-dicarboxamide], the values for the pIC50 (on TNKS2; in experiment [1]; in experiment [2]) were 7.19, 8.09 and no more than 6.30, respectively.
The matching figures for `COCCNC(=O)c1nc[nH]c1C(=O)N[C@H]1CC[C@@]2(CCCN(c3cc(C)c(F)cc3Cl)C2=O)CC1` [Example 306, N^5-[(trans)-2-(2-chloro-4-fluoro-5-methylphenyl)-1-oxo-2-azaspiro[5.5]undec-9-yl]-N^4-(2-methoxyethyl)-1H-imidazole-4,5-dicarboxamide]: 7.17, 7.92 and no more than 6.30.
The matching figures for `Cc1cc(N2CCC[C@]3(CC[C@@H](NC(=O)c4[nH]cnc4C(=O)NC4CC4)CC3)C2=O)c(Cl)cc1F` [Example 308, N^5-[(trans)-2-(2-chloro-4-fluoro-5-methylphenyl)-1-oxo-2-azaspiro[5.5]undec-9-yl]-N^4-cyclopropyl-1H-imidazole-4,5-dicarboxamide]: 6.96, 8.27 and 4.96.
Take `Cc1cc(N2CCC[C@]3(CC[C@@H](NC(=O)c4[nH]cnc4C(N)=O)CC3)C2=O)c(Cl)cc1F` [Example 309, N^5-[(trans)-2-(2-chloro-4-fluoro-5-methylphenyl)-1-oxo-2-azaspiro[5.5]undec-9-yl]-1H-imidazole-4,5-dicarboxamide]: the pIC50 at TNKS2 was 7.35; in experiment [1], 7.00; in experiment [2], no more than 4.30.

(Values after patent US20180148418A1, “AMIDO-SUBSTITUTED CYCLOHEXANE DERIVATIVES” (Bayer Pharma Aktiengesellschaft, priority 2015, published 2018).)
